Laboratory results published in US11401253B2, “16-methyl-oxacyclohexadecan-2-one and 16-methyl-azacyclohexadecan-2-one derivatives as antimicrobial agents” (THE UNIVERSITY OF MONTANA, priority 2017, dated 2022).
Values after ≈ are worked out from the molar mass of the structure shown. Values joined by “and” are separate entries in the source; they are usually repeats but may differ in a detail not shown here. Identical values can stand only once. Like-named read-outs stand apart in the source and are kept apart here.

What was measured:
[1] = test system: Vero cell; test: Cytotoxicity (MTS), Vero cells; format: cell-based, monkey; settings: Primates, 72 hours exposure
[2] = test system: HepG2; test: Cytotoxicity (MTS), HepG2 cells; format: cell-based; settings: Homo sapiens, 72 hours exposure
[3] = test system: C. albicans; test: Antibiotic testing (MIC), C. albicans; format: cell-based; settings: Candida albicans; growth inhibition ≥90%; read-out: minimum inhibitory concentration, C. albicans
[4] = test system: non-replicating persistence Mycobacterium tuberculosis (NRP-TB); test: Low oxygen recovery assay (LORA), non-replicating persistence Mtb; format: cell-based; settings: Mycobacterium tuberculosis, read-out: MIC, LORA
[5] = test system: Bacillus subtilis; test: Antibiotic testing (MIC), Bacillus subtilis; format: cell-based; settings: growth inhibition ≥90%, read-out: minimum inhibitory concentration, Bacillus subtilis
[6] = test system: Mycobacterium tuberculosis; test: microbe, parasite or virus in culture; settings: read-out: MIC, MABA
[7] = test system: B. anthracis; test: microbe, parasite or virus in culture; format: cell-based; settings: Bacillus anthracis, read-out: minimum inhibitory concentration, B. anthracis
[8] = test system: J774; test: Cytotoxicity (MTS), J774 cells; format: cell-based, murine; settings: Mus musculus, 72 hours exposure
[9] = test system: Candida glabrata; test: Antibiotic testing (MIC), Candida glabrata; format: cell-based; settings: Nakaseomyces glabratus; growth inhibition ≥90%; read-out: minimum inhibitory concentration, Candida glabrata
[10] = test system: Staphylococcus aureus (13709); test: Antibiotic testing (MIC), S. aureus 13709; format: cell-based; settings: growth inhibition ≥90% relative to drug-free controls, read-out: minimum inhibitory concentration, Staphylococcus aureus (13709)
[11] = test system: Streptococcus pyogenes; test: Antibiotic testing (MIC), Streptococcus pyogenes; format: cell-based; settings: growth inhibition ≥90%, read-out: minimum inhibitory concentration, Streptococcus pyogenes
[12] = test system: P. aeruginosa; test: Antibiotic testing (MIC), gram negative P. aeruginosa; format: cell-based
Procedure: (§1) None of this collection of compounds were active against Gram-negative bacteria
(§2) Additionally, BPL 76 and derivatives were tested against a panel of gram negative bacteria including K. pneumonia, P. aeruginosa and E. coli (Table 12).

[13] = test system: K. pneumoniae (10031); test: Antibiotic testing (MIC), gram negative K. pneumoniae; format: cell-based
Procedure: as §1, §2

[14] = test system: E. coli (25922); test: Antibiotic testing (MIC), gram negative E. coli; format: cell-based
Procedure: as §1, §2

[15] = molecular target: T1, MMP-3 (Homo sapiens, UniProt P08254); test: MMP-3 enzyme inhibition assay; format: biochemical
T1 construct: purchased BioMol
T1 sequence (P08254 100-477): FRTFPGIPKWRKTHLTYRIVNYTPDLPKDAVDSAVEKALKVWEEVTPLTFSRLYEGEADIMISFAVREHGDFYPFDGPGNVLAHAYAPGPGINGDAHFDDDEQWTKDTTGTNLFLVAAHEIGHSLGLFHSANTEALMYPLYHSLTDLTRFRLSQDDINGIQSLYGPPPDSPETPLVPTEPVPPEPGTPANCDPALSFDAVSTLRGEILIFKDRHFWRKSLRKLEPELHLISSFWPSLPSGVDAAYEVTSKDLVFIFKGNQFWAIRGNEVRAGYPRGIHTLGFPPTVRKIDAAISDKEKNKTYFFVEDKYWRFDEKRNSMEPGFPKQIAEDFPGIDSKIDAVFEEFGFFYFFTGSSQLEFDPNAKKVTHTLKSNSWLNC
Procedure: The two fungi were also co-cultured under controlled conditions. P. fuscum was grown in pure culture in potato dextrose broth (10×400 mL). After 24 h, an agar cube (8 mm^3) impregnated with P. camembertii/clavigerum mycelium was added to each flask and the resulting co-culture was shaken for 6 more days (200 rpm, room temperature). At time of harvest, methanol (50 mL/flask) was added, the mycelia were removed by gravity filtration and the broth was extracted with chloroform (3×2 L). The chloroform was removed in vacuo to yield 663 mg of crude extract. The crude extract was verified to be active in the MMP-3, caspase-1 and caspase-3 enzyme inhibition assays. Enzyme inhibitory activity was determined using specific BioMol enzyme inhibition assay kits for drug discovery as described in Stierle, A; Stierle, D. The Berkeleylactones, Antibiotic Macrolides from Fungal Coculture. J. Nat. Prod. 80, 4, 1150-1160.

[16] = test system: S. aureus (NE277); test: Antibiotic testing, methicillin-resistant S. aureus NE277; format: cell-based; settings: for MIC: Staphylococcus aureus, read-out: antibiotic testing data (MIC), S. aureus (NE277); for antibiotic testing data (MIC), S. aureus (NE277): methicillin-resistant strain
Excerpt: (§3) Both the methyl ester and the diacetate derivatives of BPL 76 slightly less but still very strong activity against the same four MRSA strains (Table 11). The activities of compounds BPL 76 and BPL 81 were compared to several known antibiotics against three methicillin-resistant strains of S. aureus [FIG. 6, comparative data provided by Hartford Hospital, Center for Anti-Infective Research and Development (CAIRD)].

[17] = test system: S. aureus CAIRD116; test: Antibiotic testing, methicillin-resistant S. aureus CAIRD116; format: cell-based; settings: methicillin-resistant strain; for MIC: Staphylococcus aureus, CAIRD116
Excerpt: as §3

[18] = test system: S. aureus CAIRD148; test: Antibiotic testing, methicillin-resistant S. aureus CAIRD148; format: cell-based; settings: methicillin-resistant strain; for MIC: Staphylococcus aureus, CAIRD148
Excerpt: as §3

[19] = test system: S. aureus CAIRD142; test: Antibiotic testing, methicillin-resistant S. aureus CAIRD142; format: cell-based; settings: methicillin-resistant strain; for MIC: Staphylococcus aureus, CAIRD142
Excerpt: as §3

[20] = non-replicating persistence, hypoxic conditions
[21] = Pseudomonas aeruginosa; read-out: MIC, P. aeruginosa
[22] = Klebsiella pneumoniae; read-out: MIC, K. pneumoniae (10031)
[23] = Escherichia coli; read-out: MIC, E. coli (25922)

C[C@@H]1CCCCCCCCCC[C@H](O)/C=C/C(=O)O1 [BPL 94, (5S,16R,E)-5-hydroxy-16-methyloxacyclohexadec-3-en-2-one]
IC50 [1]: 43.8 µg/mL (≈ 163 µM) | IC50 [2]: 85.2 µg/mL (≈ 317 µM) | MIC [3]: > 67 µg/mL | MIC [4, 20]: 20 µg/mL | MIC [5]: 34 µg/mL (≈ 127 µM) | MIC [6]: 39 µg/mL | MIC [7]: 34 µg/mL (≈ 127 µM) | IC50 [8]: 40.7 µg/mL (≈ 152 µM) | MIC [9]: > 67 µg/mL | MIC [10]: 34 µg/mL (≈ 127 µM) | MIC [11]: 67 µg/mL (≈ 250 µM)

C[C@@H]1CCCCCCCCC[C@H](O)[C@H](O)/C=C/C(=O)O1 [BPL 95, (5R,6S,16R,E)-5,6-dihydroxy-16-methyloxacyclohexadec-3-en-2-one]
IC50 [1]: 75.6 µg/mL (≈ 266 µM) | IC50 [2]: > 100 µg/mL | MIC [3]: > 96 µg/mL | MIC [4, 20]: 24 µg/mL | MIC [5]: 48 µg/mL (≈ 169 µM) | MIC [6]: > 100 µg/mL | MIC [7]: > 96 µg/mL | IC50 [8]: 74.1 µg/mL (≈ 261 µM) | MIC [9]: > 96 µg/mL | MIC [10]: 48 µg/mL (≈ 169 µM) | MIC [11]: > 96 µg/mL

C[C@H]1OC(=O)/C=C/[C@@H](O)[C@@H](O)CCCCCCCC[C@@H]1O [BPL 79, (5R,6S,15 S,16R,E)-5,6,15-trihydroxy-16-methyloxacyclohexadec-3-en-2-one]
MIC [12, 21]: > 1000 µM | MIC [3]: > 300 µg/mL | MIC [13, 22]: > 1000 µM | MIC [5]: > 300 µg/mL | MIC [7]: 75 µg/mL (≈ 250 µM) | MIC [9]: > 300 µg/mL | MIC [10]: 19 µg/mL (≈ 63.3 µM) | MIC [11]: 150 µg/mL (≈ 499 µM) | MIC [14, 23]: > 1000 µM

C[C@@H]1CCCCCCCCC[C@H](O)[C@H](OC(=O)CCC(=O)O)/C=C/C(=O)O1 [BPL 96, 4-(((5R,6S,16R,E)-6-hydroxy-16-methyl-2-oxooxacyclohexadec-3-en-5-yl)oxy)-4-oxobutanoic acid]
MIC [3]: > 96 µg/mL | MIC [5]: 48 µg/mL (≈ 125 µM) | MIC [7]: > 96 µg/mL | MIC [9]: > 96 µg/mL | MIC [10]: 48 µg/mL (≈ 125 µM) | MIC [11]: > 96 µg/mL

CC(=O)NC[C@H]1CN(c2ccc(N3CCOCC3)c(F)c2)C(=O)O1 [LIZ - Linezolidum, Linezolidum, reference compound]
MIC ([4]; non-replicating persistence conditions, known antibiotics): 2 µM | MIC [6]: 2 µM

C[C@@H]1CC(O)CCCCCCC[C@H](OC(=O)CCC(=O)O)C(=O)/C=C/C(=O)O1 (stereo partly drawn) [BPL 78, 4-(((6S,16R,E)-14-hydroxy-16-methyl-2,5-dioxooxacyclohexadec-3-en-6-yl)oxy)-4-oxobutanoic acid]
MIC [12, 21]: > 1000 µM | MMP-3 inhibition [15]: weaker inhibitors | MIC [13, 22]: > 1000 µM | MIC [14, 23]: > 1000 µM

C[C@@H]1CCCCCCCCC[C@H](OC(=O)CCC(=O)O)C(=O)/C=C/C(=O)O1 [BPL 81, 4-(((6S,16R,E)-16-methyl-2,5-dioxooxacyclohexadec-3-en-6-yl)oxy)-4-oxobutanoic acid]
MIC [12, 21]: > 250 µM | MIC [16]: 6 µg/mL (≈ 15.7 µM) | antibiotic testing data (MIC), S. aureus (NE277) [16]: 16 µM | IC50 [1]: 55.7 µg/mL (≈ 146 µM) | IC50 [2]: > 100 µg/mL | MIC [17]: 6 µg/mL (≈ 15.7 µM) | antibiotic testing data (MIC), S. aureus CAIRD116 [17]: 16 µM | MIC [3]: 96 µg/mL (≈ 251 µM) | MIC [4, 20]: > 100 µg/mL | MIC [18]: 6 µg/mL (≈ 15.7 µM) | antibiotic testing data (MIC), S. aureus CAIRD148 [18]: 16 µM | MIC [13, 22]: > 250 µM | MIC [19]: 6 µg/mL (≈ 15.7 µM) | antibiotic testing data (MIC), S. aureus CAIRD142 [19]: 16 µM | MIC [5]: 12 µg/mL (≈ 31.4 µM) | MIC [6]: 47 µg/mL | MIC [7]: 6 µg/mL (≈ 15.7 µM) | IC50 [8]: 37.2 µg/mL (≈ 97.3 µM) | MIC [9]: 48 µg/mL (≈ 126 µM) | MIC [10]: 3 µg/mL (≈ 7.84 µM) | MIC [11]: 48 µg/mL (≈ 126 µM) | MIC [14, 23]: > 250 µM

C[C@H]1OC(=O)/C=C/C(=O)[C@@H](OC(=O)CCC(=O)O)CCCCCCCC[C@@H]1O [BPL 77, 4-(((6S,15S,16R,E)-15-hydroxy-16-methyl-2,5-dioxooxacyclohexadec-3-en-6-yl)oxy)-4-oxobutanoic acid]
MIC [12, 21]: > 1000 µM | activity against K. pneumonia (in words) [13]: weakly active | MIC [13, 22]: 1000 µM and 398 µg/mL | activity against E. coli (in words) [14]: weakly active | MIC [14, 23]: 500 µM and 199 µg/mL

C[C@H]1OC(=O)/C=C/[C@@H](O)[C@@H](OC(=O)CCC(=O)O)CCCCCCCC[C@@H]1O [BPL 86, 4-(((5R,6S,15 S,16R,E)-5,15-dihydroxy-16-methyl-2-oxooxacyclohexadec-3-en-6-yl)oxy)-4-oxobutanoic acid]
MIC ([12]; Pseudomonas aeruginosa, read-out: MIC, P. aeruginosa): > 125 µM | MIC [16]: 47 µg/mL (≈ 117 µM) | antibiotic testing data (MIC), S. aureus (NE277) [16]: 125 µM | MMP-3 inhibition [15]: weaker inhibitors | MIC [17]: 47 µg/mL (≈ 117 µM) | antibiotic testing data (MIC), S. aureus CAIRD116 [17]: 125 µM | MIC [3]: > 50 µg/mL | MIC [18]: 47 µg/mL (≈ 117 µM) | antibiotic testing data (MIC), S. aureus CAIRD148 [18]: 125 µM | MIC ([13]; Klebsiella pneumoniae, read-out: MIC, K. pneumoniae (10031)): > 125 µM | MIC [19]: 47 µg/mL (≈ 117 µM) | antibiotic testing data (MIC), S. aureus CAIRD142 [19]: 125 µM | MIC [5]: > 50 µg/mL | MIC [7]: 24 µg/mL (≈ 59.9 µM) | MIC [9]: > 50 µg/mL | MIC [10]: 24 µg/mL (≈ 59.9 µM) | MIC [11]: > 50 µg/mL | MIC ([14]; Escherichia coli, read-out: MIC, E. coli (25922)): > 125 µM
